According to patent US20060148782A1, “Method and medicine for treating a mammal presenting urinary incontinence, urinary urgency, or both” (priority 2003, published 2006):
Structures can show the parent of a compound that is named as a salt.

Legend:
[1] = tested on: urinary incontinence; test: Treatment of a group of cats and dogs presenting urinary incontinence; format: in vivo; settings: admixture of 5 mg/day imipramine hydrochloride and 100 mg stool softener (or by weight), oral, after several days; group of twenty cats and dogs
Excerpt: A group of twenty mammals, including female and male cats and dogs, present with urinary incontinence.

[2] = Side effects reported by treated patients
Experimental: The patient is treated with a total daily dose of medicine, which includes an admixture of 25 mg of imipramine hydrochloride and 275 mg of stool softener (docusate sodium). […] A selective beta-blocker is administered in response to tachycardia on an as-needed basis.

[3] = tested on: urinary incontinence and/or urinary urgency; test: Treatment of patients presenting urinary incontinence and/or urinary urgency (case examples)
Experimental: The patient stops taking the daily dosages.
The complaints include urinary incontinence and/or urinary urgency (awake and sleeping).
The patient is treated with a total daily dose of medicine, which includes 50 mg of tricyclic antidepressant (imipramine hydrochloride) and 300 mg of stool softener (docusate sodium).
The complaints include chronic urinary incontinence and/or urinary urgency.
The patient is treated with a total daily dose of medicine, which includes 50 mg of imipramine hydrochloride and 350 mg of stool softener (docusate sodium), ingested separately.
The complaints include chronic, intermittent urinary incontinence and urinary urgency.
The patient is treated with a total daily dose of medicine, which includes an admixture of 25 mg of imipramine hydrochloride and 275 mg of stool softener (docusate sodium).

SMILES: CN(C)CCCN1c2ccccc2CCc2ccccc21 [imipramine hydrochloride, Imipramine hydrochloride]
- reduction or elimination of urinary incontinence [1]: reduction or elimination of urinary incontinence for a significant portion of the members of the group
- adverse side effects ([2]; 75 mg/day imipramine hydrochloride (25 mg/3 times daily) and a stool softener, oral): tolerates a dry mouth
- adverse side effects ([2]; admixture of 25 mg/day imipramine hydrochloride and 275 mg docusate sodium, selective beta-blocker given as needed): tachycardia
- control of bladder functions (awake and sleeping) noted by patient ([3]; 50 mg/day imipramine hydrochloride and 300 mg docusate sodium, oral, after several days): full control of bladder functions
- control of bladder functions (awake and sleeping) noted by patient ([3]; 50 mg/day imipramine hydrochloride and 350 mg docusate sodium, ingested separately, oral, after several days): partial to full control of bladder functions
- control of bladder functions (awake and sleeping) noted by patient ([3]; 75 mg/day imipramine hydrochloride (25 mg/3 times daily) and a stool softener, oral, after several days): partial to full control of bladder functions
- control of bladder functions (awake and sleeping) noted by patient ([3]; admixture of 25 mg/day imipramine hydrochloride and 275 mg docusate sodium, oral, after several days): partial to full control of bladder functions

SMILES: CN(C)CCCN1c2ccccc2CCc2ccccc21.CN(C)CCCN1c2ccccc2CCc2ccccc21.O=C(O)c1cc2ccccc2c(Cc2c(O)c(C(=O)O)cc3ccccc23)c1O [imipramine pamoate, 5-[3-(dimethylamino)]propyl-10,11-dihydro-5H-dibenzazepine 4,4-methlyenebis-(3-hydroxy-2-napthoate)]
- adverse side effects ([2]; 75 mg/day imipramine pamoate without stool softener, oral): develops constipation
- control of bladder functions noted by patient ([3]; 75 mg/day imipramine pamoate without stool softener, oral, after several days): full control of bladder functions
- recurrence of symptoms after stopping daily dosages ([3]; after about three days without treatment): bladder urgency and incontinence recur
